How the values were obtained:
LRRK2 = assay: Endogenous LRRK2 levels in SH-SY5Y cells, Western blot; assay type: cell-based, human
[1] = stated as reason for using the precursor AICAr; cited from earlier work
[2] = test system: [α-32P]cap-labeled LRRK2 RNA; assay: In vitro decapping assay; assay type: biochemical, human; settings: recombinant Flag-tagged protein from HEK 293T cells, thin layer chromatography

N#Cc1c(O)c2c(-c3ccc(-c4ccccc4O)cc3)csc2[nH]c1=O [A769662]
LRRK2 levels (LRRK2; SH-SY5Y, 10, 20, or 50 μM A769662, 48 hours): no obvious effects

Nc1ncnc2nc(-c3ccc(N4CCOCC4)nc3)cc(-c3cccc(Br)c3)c12 [ABT-702]
effect of AICAr on LRRK2 levels in the presence of ABT-702 (LRRK2; SH-SY5Y, 1 mM AICAr plus 1 μM ABT-702, 48 hours): completely counteracted

NC(=O)c1ncn([C@@H]2O[C@H](COP(=O)(O)O)[C@@H](O)[C@H]2O)c1N [AICAR/ZMP, 5-aminoimidazole-4-carboxamide ribonucleotide]
membrane permeability [1]: membrane impermeable

O=[N+]([O-])c1ccc(CSc2ncnc3c2ncn3[C@@H]2O[C@H](CO)[C@@H](O)[C@H]2O)cc1 [NBTI]
effect of AICAr on LRRK2 levels in the presence of NBTI (LRRK2; SH-SY5Y, 1 mM AICAr plus 50 μM NBT-1, 48 hours): completely abolished

DCP2: recombinant Flag-tagged decapping enzyme purified from HEK 293T cells
LRRK2 mRNA decapping activity (m7GDP level) [2]: decapped LRRK2 mRNA

B1: DCP1A: recombinant Flag-tagged decapping enzyme purified from HEK 293T cells (protein, UniProt Q9NPI6 1-582, looked up)
mRNA-decapping enzyme 1A: MEALSRAGQEMSLAALKQHDPYITSIADLTGQVALYTFCPKANQWEKTDIEGTLFVYRRSASPYHGFTIVNRLNMHNLVEPVNKDLEFQLHEPFLLYRNASLSIYSIWFYDKNDCHRIAKLMADVVEEETRRSQQAARDKQSPSQANGCSDHRPIDILEMLSRAKDEYERNQMGDSNISSPGLQPSTQLSNLGSTETLEEMPSGSQDKSAPSGHKHLTVEELFGTSLPKEQPAVVGLDSEEMERLPGDASQKEPNSFLPFPFEQLGGAPQSETLGVPSAAHHSVQPEITTPVLITPASITQSNEKHAPTYTIPLSPVLSPTLPAEAPTAQVPPSLPRNSTMMQAVKTTPRQRSPLLNQPVPELSHASLIANQSPFRAPLNVTNTAGTSLPSVDLLQKLRLTPQHDQIQTQPLGKGAMVASFSPAAGQLATPESFIEPPSKTAAARVAASASLSNMVLAPLQSMQQNQDPEVFVQPKVLSSAIPVAGAPLVTATTTAVSSVLLAPSVFQQTVTRSSDLERKASSPSPLTIGTPESQRKPSIILSKSQLQDTLIHLIKNDSSFLSTLHEVYLQVLTKNKDNHNL
modifications: Flag tag
notes: recombinant Flag-tagged decapping enzyme purified from HEK 293T cells
LRRK2 mRNA decapping activity (m7GDP level) [2]: decapped LRRK2 mRNA

— patent US20240075050A1, “Methods and Compositions for Treating Leucine Rich Repeat Kinase 2 (LRRK2)-Associated Disorder or Condition” (University of Connecticut, priority 2022, published 2024)
